Tested on: rice
Experiment: Low temperature assay on rice seedlings
Format: in vivo
Protocol: According to a low temperature assay, we measured parameters including plant height, number of leaf, area of leaf, number of tiller, weight of root at low temperature to completely determine effects of the natural brassinolide analogues on the resistance to low temperature of a plant.
The natural brassinolide analogues, BR1, BR2, BR3, BR4, BR5 and BR6, used herein, were those prepared by the method of Example 1. Respectively the analogues were dissolved into 95% (V/V) ethanol solution, and then diluted with pure water to 1 mg/L, 0.1 mg/L, 0.01 mg/L, 0.001 mg/L and 0.0001 mg/L. In addition, pure water was used as a control.
After rice seeds were disinfected by using 5% sodium hypochlorite solution treatment, they were rinsed with distilled water until their pH>7, placed into a petri dish in a dark incubator, and cultured by using water at 30° C.±2° C. for 9 days. Then respectively the nine-day-old etiolated seedlings of rice were immersed in the above solutions containing different concentrations of the natural brassinolide analogues or pure water, and cultured at the temperature of 1° C., 2° C., 3° C., 4° C. and 5° C. for 24 hr. The parameters including plant height, area of leaf and weight of root after 3, 6, 9 and 12 days and number of leaf and number of tiller after 12 days were measured.

CC(C)[C@H](C)[C@@H](O)[C@H](O)[C@@H](C)[C@H]1CCC2C3COC(=O)C4C[C@H](O)[C@H](O)C[C@]4(C)C3CC[C@@]21C (some centres unmarked) [BR1]
Height (0.01 mg/l, 3 °C, 9 days): 7.4 cm
Weight of root (0.01 mg/l, 3 °C, 9 days): 2.9 g
Area of leaf (0.01 mg/l, 3 °C, 12 days): 13.2 cm^2
Height (0.01 mg/l, 3 °C, 12 days): 7.6 cm
Number of leaf (0.01 mg/l, 3 °C, 12 days): 3
Number of tiller (0.01 mg/l, 3 °C, 12 days): 2
Weight of root (0.01 mg/l, 3 °C, 12 days): 2.9 g
Area of leaf (0.01 mg/l, 4 °C, 3 days): 10.8 cm^2
Height (0.01 mg/l, 4 °C, 3 days): 7.1 cm
Weight of root (0.01 mg/l, 4 °C, 3 days): 2.5 g
Area of leaf (0.01 mg/l, 4 °C, 6 days): 12.4 cm^2
Height (0.01 mg/l, 4 °C, 6 days): 7.3 cm
Weight of root (0.01 mg/l, 4 °C, 6 days): 2.6 g
Area of leaf (0.01 mg/l, 4 °C, 9 days): 13.4 cm^2
Height (0.01 mg/l, 4 °C, 9 days): 7.5 cm
Weight of root (0.01 mg/l, 4 °C, 9 days): 2.9 g
Area of leaf (0.01 mg/l, 4 °C, 12 days): 13.7 cm^2
Height (0.01 mg/l, 4 °C, 12 days): 7.8 cm
Number of leaf (0.01 mg/l, 4 °C, 12 days): 3
Number of tiller (0.01 mg/l, 4 °C, 12 days): 2
Weight of root (0.01 mg/l, 4 °C, 12 days): 3.0 g
Area of leaf (0.01 mg/l, 5 °C, 3 days): 10.9 cm^2
Height (0.01 mg/l, 5 °C, 3 days): 7.7 cm
Weight of root (0.01 mg/l, 5 °C, 3 days): 2.8 g
Area of leaf (0.01 mg/l, 5 °C, 6 days): 13.9 cm^2
Height (0.01 mg/l, 5 °C, 6 days): 7.8 cm
Weight of root (0.01 mg/l, 5 °C, 6 days): 3.0 g
Area of leaf (0.01 mg/l, 5 °C, 9 days): 17.4 cm^2
Height (0.01 mg/l, 5 °C, 9 days): 8.2 cm
Weight of root (0.01 mg/l, 5 °C, 9 days): 3.4 g
Area of leaf (0.01 mg/l, 5 °C, 12 days): 18 cm^2
Height (0.01 mg/l, 5 °C, 12 days): 8.5 cm
Number of leaf (0.01 mg/l, 5 °C, 12 days): 4
Number of tiller (0.01 mg/l, 5 °C, 12 days): 3
Weight of root (0.01 mg/l, 5 °C, 12 days): 3.9 g
Area of leaf (0.1 mg/l, 1 °C, 3 days): 10.1 cm^2
Height (0.1 mg/l, 1 °C, 3 days): 7.0 cm
Weight of root (0.1 mg/l, 1 °C, 3 days): 2.8 g
Area of leaf (0.1 mg/l, 1 °C, 6 days): 11.9 cm^2
Height (0.1 mg/l, 1 °C, 6 days): 7.2 cm
Weight of root (0.1 mg/l, 1 °C, 6 days): 3.0 g
Area of leaf (0.1 mg/l, 1 °C, 9 days): 12.9 cm^2
Height (0.1 mg/l, 1 °C, 9 days): 7.3 cm
Weight of root (0.1 mg/l, 1 °C, 9 days): 3.4 g
Area of leaf (0.1 mg/l, 1 °C, 12 days): 13.4 cm^2
Height (0.1 mg/l, 1 °C, 12 days): 7.5 cm
Number of leaf (0.1 mg/l, 1 °C, 12 days): 3
Number of tiller (0.1 mg/l, 1 °C, 12 days): 3
Weight of root (0.1 mg/l, 1 °C, 12 days): 3.6 g
Area of leaf (0.1 mg/l, 2 °C, 3 days): 10.4 cm^2
Height (0.1 mg/l, 2 °C, 3 days): 7.1 cm
Weight of root (0.1 mg/l, 2 °C, 3 days): 2.9 g
Area of leaf (0.1 mg/l, 2 °C, 6 days): 11.8 cm^2
Height (0.1 mg/l, 2 °C, 6 days): 7.2 cm
Weight of root (0.1 mg/l, 2 °C, 6 days): 3.0 g
Area of leaf (0.1 mg/l, 2 °C, 9 days): 12.8 cm^2
Height (0.1 mg/l, 2 °C, 9 days): 7.3 cm
Weight of root (0.1 mg/l, 2 °C, 9 days): 3.1 g
Area of leaf (0.1 mg/l, 2 °C, 12 days): 13.6 cm^2
Height (0.1 mg/l, 2 °C, 12 days): 7.4 cm
Number of leaf (0.1 mg/l, 2 °C, 12 days): 3
Number of tiller (0.1 mg/l, 2 °C, 12 days): 3
Weight of root (0.1 mg/l, 2 °C, 12 days): 3.2 g
Area of leaf (0.1 mg/l, 3 °C, 3 days): 10.5 cm^2
Height (0.1 mg/l, 3 °C, 3 days): 7.2 cm
Weight of root (0.1 mg/l, 3 °C, 3 days): 2.5 g
Area of leaf (0.1 mg/l, 3 °C, 6 days): 12 cm^2
Height (0.1 mg/l, 3 °C, 6 days): 7.3 cm
Weight of root (0.1 mg/l, 3 °C, 6 days): 2.6 g
Area of leaf (0.1 mg/l, 3 °C, 9 days): 12.8 cm^2
Height (0.1 mg/l, 3 °C, 9 days): 7.4 cm
Weight of root (0.1 mg/l, 3 °C, 9 days): 2.9 g
Area of leaf (0.1 mg/l, 3 °C, 12 days): 13.4 cm^2
Height (0.1 mg/l, 3 °C, 12 days): 7.6 cm
Number of leaf (0.1 mg/l, 3 °C, 12 days): 3
Number of tiller (0.1 mg/l, 3 °C, 12 days): 2
Weight of root (0.1 mg/l, 3 °C, 12 days): 2.9 g
Area of leaf (0.1 mg/l, 4 °C, 3 days): 10.8 cm^2
Height (0.1 mg/l, 4 °C, 3 days): 7.1 cm
Weight of root (0.1 mg/l, 4 °C, 3 days): 2.5 g
Area of leaf (0.1 mg/l, 4 °C, 6 days): 12.5 cm^2
Height (0.1 mg/l, 4 °C, 6 days): 7.4 cm
Weight of root (0.1 mg/l, 4 °C, 6 days): 2.7 g
Area of leaf (0.1 mg/l, 4 °C, 9 days): 13.5 cm^2
Height (0.1 mg/l, 4 °C, 9 days): 7.5 cm
Weight of root (0.1 mg/l, 4 °C, 9 days): 2.9 g
Area of leaf (0.1 mg/l, 4 °C, 12 days): 13.8 cm^2
Height (0.1 mg/l, 4 °C, 12 days): 7.7 cm
Number of leaf (0.1 mg/l, 4 °C, 12 days): 3
Number of tiller (0.1 mg/l, 4 °C, 12 days): 2
Weight of root (0.1 mg/l, 4 °C, 12 days): 3.1 g
Area of leaf (0.1 mg/l, 5 °C, 3 days): 11.1 cm^2
Height (0.1 mg/l, 5 °C, 3 days): 7.7 cm
Weight of root (0.1 mg/l, 5 °C, 3 days): 2.9 g
Area of leaf (0.1 mg/l, 5 °C, 6 days): 13.9 cm^2
Height (0.1 mg/l, 5 °C, 6 days): 7.9 cm
Weight of root (0.1 mg/l, 5 °C, 6 days): 3.2 g
Area of leaf (0.1 mg/l, 5 °C, 9 days): 17.8 cm^2
Height (0.1 mg/l, 5 °C, 9 days): 8.4 cm
Weight of root (0.1 mg/l, 5 °C, 9 days): 3.5 g
Area of leaf (0.1 mg/l, 5 °C, 12 days): 19 cm^2
Height (0.1 mg/l, 5 °C, 12 days): 8.7 cm
Number of leaf (0.1 mg/l, 5 °C, 12 days): 3
Number of tiller (0.1 mg/l, 5 °C, 12 days): 2
Weight of root (0.1 mg/l, 5 °C, 12 days): 4.1 g
Area of leaf (1 mg/l, 1 °C, 3 days): 10 cm^2
Height (1 mg/l, 1 °C, 3 days): 7.1 cm
Weight of root (1 mg/l, 1 °C, 3 days): 2.8 g
Area of leaf (1 mg/l, 1 °C, 6 days): 11.2 cm^2
Height (1 mg/l, 1 °C, 6 days): 7.2 cm
Weight of root (1 mg/l, 1 °C, 6 days): 3.1 g
Area of leaf (1 mg/l, 1 °C, 9 days): 12.4 cm^2
Height (1 mg/l, 1 °C, 9 days): 7.3 cm
Weight of root (1 mg/l, 1 °C, 9 days): 3.4 g
Area of leaf (1 mg/l, 1 °C, 12 days): 13 cm^2
Height (1 mg/l, 1 °C, 12 days): 7.4 cm
Number of leaf (1 mg/l, 1 °C, 12 days): 3
Number of tiller (1 mg/l, 1 °C, 12 days): 3
Weight of root (1 mg/l, 1 °C, 12 days): 3.9 g
Area of leaf (1 mg/l, 2 °C, 3 days): 10.2 cm^2
Height (1 mg/l, 2 °C, 3 days): 7.1 cm
Weight of root (1 mg/l, 2 °C, 3 days): 2.8 g
Area of leaf (1 mg/l, 2 °C, 6 days): 11.7 cm^2
Height (1 mg/l, 2 °C, 6 days): 7.2 cm
Weight of root (1 mg/l, 2 °C, 6 days): 3.0 g
Area of leaf (1 mg/l, 2 °C, 9 days): 12.6 cm^2
Height (1 mg/l, 2 °C, 9 days): 7.3 cm
Weight of root (1 mg/l, 2 °C, 9 days): 3.2 g
Area of leaf (1 mg/l, 2 °C, 12 days): 13 cm^2
Height (1 mg/l, 2 °C, 12 days): 7.5 cm
Number of leaf (1 mg/l, 2 °C, 12 days): 3
Number of tiller (1 mg/l, 2 °C, 12 days): 3
Weight of root (1 mg/l, 2 °C, 12 days): 3.9 g
Area of leaf (1 mg/l, 3 °C, 3 days): 10.4 cm^2
Height (1 mg/l, 3 °C, 3 days): 7.1 cm
Weight of root (1 mg/l, 3 °C, 3 days): 2.5 g
Area of leaf (1 mg/l, 3 °C, 6 days): 12 cm^2
Height (1 mg/l, 3 °C, 6 days): 7.2 cm
Weight of root (1 mg/l, 3 °C, 6 days): 2.6 g
Area of leaf (1 mg/l, 3 °C, 9 days): 12.6 cm^2
Height (1 mg/l, 3 °C, 9 days): 7.5 cm
Weight of root (1 mg/l, 3 °C, 9 days): 2.9 g
Area of leaf (1 mg/l, 3 °C, 12 days): 13.2 cm^2
Height (1 mg/l, 3 °C, 12 days): 7.6 cm
Number of leaf (1 mg/l, 3 °C, 12 days): 3
Number of tiller (1 mg/l, 3 °C, 12 days): 2
Weight of root (1 mg/l, 3 °C, 12 days): 2.9 g
Area of leaf (1 mg/l, 4 °C, 3 days): 10.9 cm^2
Height (1 mg/l, 4 °C, 3 days): 7.1 cm
Weight of root (1 mg/l, 4 °C, 3 days): 2.5 g
Area of leaf (1 mg/l, 4 °C, 6 days): 12.6 cm^2
Height (1 mg/l, 4 °C, 6 days): 7.5 cm
Weight of root (1 mg/l, 4 °C, 6 days): 2.7 g
Area of leaf (1 mg/l, 4 °C, 9 days): 13.7 cm^2
Height (1 mg/l, 4 °C, 9 days): 7.6 cm
Weight of root (1 mg/l, 4 °C, 9 days): 3.0 g
Area of leaf (1 mg/l, 4 °C, 12 days): 14 cm^2
Height (1 mg/l, 4 °C, 12 days): 7.7 cm
Number of leaf (1 mg/l, 4 °C, 12 days): 3
Number of tiller (1 mg/l, 4 °C, 12 days): 2
Weight of root (1 mg/l, 4 °C, 12 days): 3.2 g
Area of leaf (1 mg/l, 5 °C, 3 days): 11.1 cm^2
Height (1 mg/l, 5 °C, 3 days): 7.7 cm
Weight of root (1 mg/l, 5 °C, 3 days): 2.9 g
Area of leaf (1 mg/l, 5 °C, 6 days): 13.6 cm^2
Height (1 mg/l, 5 °C, 6 days): 8.0 cm
Weight of root (1 mg/l, 5 °C, 6 days): 3.5 g
Area of leaf (1 mg/l, 5 °C, 9 days): 18.4 cm^2
Height (1 mg/l, 5 °C, 9 days): 8.6 cm
Weight of root (1 mg/l, 5 °C, 9 days): 3.7 g
Area of leaf (1 mg/l, 5 °C, 12 days): 20 cm^2
Height (1 mg/l, 5 °C, 12 days): 8.9 cm
Number of leaf (1 mg/l, 5 °C, 12 days): 3
Number of tiller (1 mg/l, 5 °C, 12 days): 2
Weight of root (1 mg/l, 5 °C, 12 days): 4.5 g
Effects on resistance to low temperature compared among analogues (in vivo): more than those of BR2, BR3 and BR4

Reference: patent US9326506B2, “Preparation method, agricultural composition and applications of natural brassinolide analogs” (CHENGDU NEWSUN CROPSCIENCE CO., LTD, priority 2012, dated 2016)
